Assay results reported in patent US11566007B2, “Ras inhibitors” (Revolution Medicines, Inc., priority 2019, dated 2023).
Like-named read-outs stand apart in the source and are kept apart here.

Experiments:
K-Ras G13C = K-Ras G13C (Homo sapiens (Human), UniProt P01116+P62937, G13C); experiment: Ras-Raf (BRAF RBD) disruption / FRET / MOA assay, KRAS G13C; assay type: biochemical; settings: KRAS G13C; Ras-Raf disruption/FRET/MOA assay; read-out: IC50* KRAS G13C FRET data
Summary of the method: (§1)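 Compounds, top final concentration 30 μM in 10-point 3-fold series, incubated 3 hours at 25° C with nucleotide-loaded Ras, cyclophilin A and BRAF RBD.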

KRAS WT = KRAS WT (Homo sapiens (Human), UniProt P01116+P62937); experiment: Ras-Raf (BRAF RBD) disruption / FRET / MOA assay, KRAS WT; assay type: biochemical; settings: read-out: IC50* KRAS WT FRET data
KRAS WT, sequence (P01116-2 other isoform, or with tags, fused parts or gaps): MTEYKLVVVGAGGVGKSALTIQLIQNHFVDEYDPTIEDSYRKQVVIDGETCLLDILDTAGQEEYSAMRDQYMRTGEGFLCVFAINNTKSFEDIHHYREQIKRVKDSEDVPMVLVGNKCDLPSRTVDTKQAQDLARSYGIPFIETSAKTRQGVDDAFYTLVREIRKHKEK
KRAS WT, sequence (P62937 whole entry): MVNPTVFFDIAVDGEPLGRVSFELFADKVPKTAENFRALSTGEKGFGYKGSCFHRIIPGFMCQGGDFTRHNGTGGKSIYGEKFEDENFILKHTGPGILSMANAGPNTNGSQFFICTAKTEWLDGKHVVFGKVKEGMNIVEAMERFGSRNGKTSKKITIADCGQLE
Summary of the method: as §1

K-Ras G12C = K-Ras G12C (Homo sapiens (Human), UniProt P01116+P62937, G12C); experiment: Ras-Raf (BRAF RBD) disruption / FRET / MOA assay, KRAS G12C; assay type: biochemical; settings: KRAS G12C; Ras-Raf disruption/FRET/MOA assay; read-out: IC50* KRAS G12C FRET data
K-Ras G12C, sequence (P01116-2 other isoform, or with tags, fused parts or gaps G12C): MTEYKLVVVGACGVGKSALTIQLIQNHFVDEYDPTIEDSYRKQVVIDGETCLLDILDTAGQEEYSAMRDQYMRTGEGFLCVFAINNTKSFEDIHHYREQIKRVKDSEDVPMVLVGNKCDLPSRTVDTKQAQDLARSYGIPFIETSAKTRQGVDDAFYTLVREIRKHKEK
K-Ras G12C, sequence (P62937 whole entry): as the sequence (P62937 whole entry) above
Summary of the method: as §1

[1] = system: NCI-H358 cells (K-Ras G12C); experiment: Potency assay: pERK in NCI-H358 cells; assay type: cell-based, human; settings: Homo sapiens, NCI-H358; H358 KRAS G12C; read-out: pERK EC50
Summary of the method: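 Inhibition of cellular pERK after a 4 h treatment, detected by AlphaLISA or In-Cell Western. IC50 from a four-parameter concentration-response fit.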

NRAS G12C = NRAS G12C (Homo sapiens (Human), UniProt P01111+P62937, G12C); experiment: Ras-Raf (BRAF RBD) disruption / FRET / MOA assay, NRAS G12C; assay type: biochemical; settings: read-out: IC50* NRAS G12C FRET data
NRAS G12C, sequence (P01111 whole entry G12C): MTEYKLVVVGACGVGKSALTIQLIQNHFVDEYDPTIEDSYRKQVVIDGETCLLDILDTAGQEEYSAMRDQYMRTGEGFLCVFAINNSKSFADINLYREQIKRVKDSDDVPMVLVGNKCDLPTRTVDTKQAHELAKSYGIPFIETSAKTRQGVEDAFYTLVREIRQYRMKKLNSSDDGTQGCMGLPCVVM
NRAS G12C, sequence (P62937 whole entry): as the sequence (P62937 whole entry) above
Summary of the method: as §1

KRAS G12S = KRAS G12S (Homo sapiens (Human), UniProt P01116+P62937, G12S); experiment: Ras-Raf (BRAF RBD) disruption / FRET / MOA assay, KRAS G12S; assay type: biochemical; settings: Ras-Raf disruption/FRET/MOA assay; class symbols; read-out: KRAS G12S FRET data IC50
KRAS G12S, sequence (P01116-2 other isoform, or with tags, fused parts or gaps G12S): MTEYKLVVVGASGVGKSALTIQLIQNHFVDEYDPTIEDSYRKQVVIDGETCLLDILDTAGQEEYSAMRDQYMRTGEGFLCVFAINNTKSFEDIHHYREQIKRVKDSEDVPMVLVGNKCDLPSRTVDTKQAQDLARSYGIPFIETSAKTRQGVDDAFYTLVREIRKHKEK
KRAS G12S, sequence (P62937 whole entry): as the sequence (P62937 whole entry) above
Summary of the method: as §1

KRAS G12V = KRAS G12V (Homo sapiens (Human), UniProt P01116+P62937, G12V); experiment: Ras-Raf (BRAF RBD) disruption / FRET / MOA assay, KRAS G12V; assay type: biochemical; settings: read-out: IC50* KRAS G12V FRET data
KRAS G12V, sequence (P01116-2 other isoform, or with tags, fused parts or gaps G12V): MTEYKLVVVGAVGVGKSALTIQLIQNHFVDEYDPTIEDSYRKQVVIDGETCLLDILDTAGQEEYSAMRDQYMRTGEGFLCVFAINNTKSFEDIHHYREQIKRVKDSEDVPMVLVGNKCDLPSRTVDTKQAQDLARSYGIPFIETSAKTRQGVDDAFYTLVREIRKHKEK
KRAS G12V, sequence (P62937 whole entry): as the sequence (P62937 whole entry) above
Summary of the method: as §1

NCI-H358 (K-Ras G12C) = experiment: CellTiter-Glo cell viability assay, NCI-H358; assay type: cell-based, human; settings: NCI-H358, 5-day treatment, class symbols, read-out: Additional H358 Cell Viability assay data (K-Ras G12C, IC50)
Summary of the method: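 Compounds were dispensed directly onto K-Ras mutant cells and incubated until day 5, then plates were equilibrated to room temperature for about 30 minutes before CellTiter-Glo luminescence. Signals were normalized as (sample/average DMSO)*100 and fitted by four-parameter logistic fit.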

KRAS G13D = KRAS G13D (Homo sapiens (Human), UniProt P01116+P62937, G13D); experiment: Ras-Raf (BRAF RBD) disruption / FRET / MOA assay, KRAS G13D; assay type: biochemical; settings: read-out: IC50* KRAS G13D FRET data
KRAS G13D, sequence (P01116-2 other isoform, or with tags, fused parts or gaps G13D): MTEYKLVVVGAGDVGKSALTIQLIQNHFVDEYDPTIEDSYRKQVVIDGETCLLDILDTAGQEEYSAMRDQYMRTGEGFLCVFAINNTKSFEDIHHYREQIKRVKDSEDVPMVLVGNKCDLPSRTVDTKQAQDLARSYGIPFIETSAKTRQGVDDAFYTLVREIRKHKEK
KRAS G13D, sequence (P62937 whole entry): as the sequence (P62937 whole entry) above
Summary of the method: as §1

KRAS G12D = KRAS G12D (Homo sapiens (Human), UniProt P01116+P62937, G12D); experiment: Ras-Raf (BRAF RBD) disruption / FRET / MOA assay, KRAS G12D; assay type: biochemical; settings: Ras-Raf disruption/FRET/MOA assay; class symbols; read-out: KRAS G12D FRET data IC50
KRAS G12D, sequence (P01116-2 other isoform, or with tags, fused parts or gaps G12D): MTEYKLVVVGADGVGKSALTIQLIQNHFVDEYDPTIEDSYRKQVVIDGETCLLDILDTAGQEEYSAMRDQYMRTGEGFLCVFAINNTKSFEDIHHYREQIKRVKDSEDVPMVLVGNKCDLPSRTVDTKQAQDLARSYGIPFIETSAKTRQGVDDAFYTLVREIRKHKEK
KRAS G12D, sequence (P62937 whole entry): as the sequence (P62937 whole entry) above
Summary of the method: as §1

K-Ras G13C, sequence (P01116-2 other isoform, or with tags, fused parts or gaps G13C): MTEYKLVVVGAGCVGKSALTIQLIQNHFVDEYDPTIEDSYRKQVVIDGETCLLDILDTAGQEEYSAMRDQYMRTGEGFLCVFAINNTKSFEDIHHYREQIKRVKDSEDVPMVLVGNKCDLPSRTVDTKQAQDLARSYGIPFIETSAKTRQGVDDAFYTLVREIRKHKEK
K-Ras G13C, sequence (P62937 whole entry): as the sequence (P62937 whole entry) above

Row | SMILES | IC50 (K-Ras G13C) | IC50 (KRAS WT) | IC50 (K-Ras G12C) | EC50 [1] | IC50 (NRAS G12C) | IC50 (KRAS G12S) | IC50 (KRAS G12V) | IC50 (NCI-H358 (K-Ras G12C); Homo sapiens, NCI-H358, 120 h) | IC50 (KRAS G13D) | IC50 (KRAS G12D) | IC50 (NCI-H358 (K-Ras G12C))
1 | CCn1c(-c2cccnc2COC)c2c3cc(ccc31)-c1cc(O)cc(c1)C[C@H](NC(=O)[C@H](C(C)C)N(C)C(=O)[C@@H]1CCN(C(=O)C#CC(C)(C)N(C)C)C1)C(=O)N1CCC[C@H](N1)C(=O)OCC(C)(C)C2 [Example A162] | 100 to 1000 nM | 1000 to 10000 nM | < 10 nM | < 5000 nM | < 10 nM | 1000 to 10000 nM | 100 to 1000 nM | < 10 nM | 1000 to 10000 nM | 1000 to 10000 nM | 
2 | CCn1c(-c2cccnc2COC)c2c3cc(ccc31)-c1cc(O)cc(c1)C[C@H](NC(=O)[C@H](C(C)C)N(C)C(=O)[C@H]1CCC(C(=O)/C=C\CN(C)C)C1)C(=O)N1CCC[C@H](N1)C(=O)OCC(C)(C)C2 (stereo partly drawn) [Example A164] | 100 to 1000 nM | 100 to 1000 nM | 10 to 100 nM | < 5000 nM | 10 to 100 nM | 100 to 1000 nM | 100 to 1000 nM |  | 100 to 1000 nM | 1000 to 10000 nM | 100 to 1000 nM
3 | CCn1c(-c2cccnc2COC)c2c3cc(ccc31)-c1cc(O)cc(c1)C[C@H](NC(=O)[C@@H](C(C)C)N(C)C(=O)[C@H]1C[C@@H](C)N(C(=O)C#CCN(C)C)C1)C(=O)N1CCC[C@H](N1)C(=O)OCC(C)(C)C2 [Example A165] | 100 to 1000 nM | > 10000 nM | 10 to 100 nM | < 5000 nM | 10 to 100 nM | > 10000 nM | > 10000 nM | 10 to 100 nM | > 10000 nM | > 10000 nM | 
4 | CC#CC(=O)N1CC[C@@H](C(=O)N(C)[C@H](C(=O)N[C@H]2Cc3cc(O)cc(c3)-c3ccc4c(c3)c(c(-c3cncnc3)n4CC)CC(C)(C)COC(=O)[C@@H]3CCCN(N3)C2=O)C(C)C)C1 [Example A169] | 1000 to 10000 nM | 1000 to 10000 nM | 100 to 1000 nM | < 5000 nM | 100 to 1000 nM | 1000 to 10000 nM | 1000 to 10000 nM | 100 to 1000 nM | > 10000 nM | > 10000 nM | 
5 | CCn1c(-c2cccnc2COC)c2c3cc(ccc31)-c1cc(O)cc(c1)C[C@H](NC(=O)[C@H](C(C)C)N(C)C(=O)[C@H]1C[C@@H](C)N(C(=O)C#CCN(C)C)C1)C(=O)N1CCC[C@H](N1)C(=O)OCC(C)(C)C2 [Example A175] | < 10 nM | 1000 to 10000 nM | < 10 nM | < 5000 nM | < 10 nM | 1000 to 10000 nM | 1000 to 10000 nM | < 10 nM | 1000 to 10000 nM | 1000 to 10000 nM | 
6 | CCn1c(-c2cncnc2)c2c3cc(ccc31)-c1cc(O)cc(c1)C[C@H](NC(=O)[C@H](C(C)C)N(C)C(=O)[C@H]1CCN(C(=O)C#CCN3CCOCC3)C1)C(=O)N1CCC[C@H](N1)C(=O)OCC(C)(C)C2 [Example A176] | 1000 to 10000 nM | > 10000 nM | < 10 nM | < 5000 nM | < 10 nM | 1000 to 10000 nM | 1000 to 10000 nM | 10 to 100 nM | > 10000 nM | > 10000 nM | 
7 | CCn1c(-c2cncnc2)c2c3cc(ccc31)-c1csc(n1)C[C@H](NC(=O)[C@H](C(C)C)N(C)C(=O)[C@H]1CCN(C(=O)C#CCN3CCOCC3)C1)C(=O)N1CCC[C@H](N1)C(=O)OCC(C)(C)C2 [Example A177] | > 10000 nM | > 10000 nM | 100 to 1000 nM | < 5000 nM | 100 to 1000 nM | > 10000 nM | > 10000 nM | 100 to 1000 nM | > 10000 nM | > 10000 nM | 
8 | C/C=C(\C#N)C(=O)N1CC[C@H](C(=O)N(C)[C@H](C(=O)N[C@H]2Cc3cc(O)cc(c3)-c3ccc4c(c3)c(c(-c3cccnc3COC)n4CC)CC(C)(C)COC(=O)[C@@H]3CCCN(N3)C2=O)C(C)C)C1 [Example A178] | 10 to 100 nM | 1000 to 10000 nM | 10 to 100 nM | < 5000 nM | 10 to 100 nM | 100 to 1000 nM | 100 to 1000 nM | > 1000 nM | 1000 to 10000 nM | 1000 to 10000 nM | 
9 | C=CC(=O)N1CC[C@@H](C(=O)N(C)[C@H](C(=O)N[C@H]2Cc3cc(O)cc(c3)-c3ccc4c(c3)c(c(-c3cncnc3)n4CC)CC(C)(C)COC(=O)[C@@H]3CCCN(N3)C2=O)C(C)C)O1 [Example A179] | 100 to 1000 nM | 1000 to 10000 nM | 10 to 100 nM | < 5000 nM | 10 to 100 nM | 1000 to 10000 nM | 1000 to 10000 nM | > 1000 nM | 1000 to 10000 nM | 1000 to 10000 nM | 
10 | C=CC(=O)N1CC[C@H](C(=O)N(C)[C@H](C(=O)N[C@H]2Cc3cc(O)cc(c3)-c3ccc4c(c3)c(c(-c3cncnc3)n4CC)CC(C)(C)COC(=O)[C@@H]3CCCN(N3)C2=O)C(C)C)O1 [Example A180] | 100 to 1000 nM | 100 to 1000 nM | 100 to 1000 nM | < 5000 nM | 100 to 1000 nM | 1000 to 10000 nM | 100 to 1000 nM | > 1000 nM | 1000 to 10000 nM | 1000 to 10000 nM | 
11 | CCn1c(-c2cncnc2)c2c3cc(ccc31)-c1cccc(c1)C[C@H](NC(=O)[C@H](C(C)C)N(C)C(=O)[C@H]1CCN(C(=O)C#CCN3CCOCC3)C1)C(=O)N1CCC[C@H](N1)C(=O)OCC(C)(C)C2 [Example A185] | > 10000 nM | > 10000 nM | 100 to 1000 nM | < 5000 nM | 100 to 1000 nM | > 10000 nM | > 10000 nM | 100 to 1000 nM | > 10000 nM | > 10000 nM | 
12 | CCn1c(-c2cccnc2COC)c2c3cc(ccc31)-c1cc(O)cc(c1)C[C@H](NC(=O)[C@H](C(C)C)N(C)C(=O)[C@H]1CCN(C(=O)C#CCN3CCN(C)CC3)C1)C(=O)N1CCC[C@H](N1)C(=O)OCC(C)(C)C2 [Example A189] | 100 to 1000 nM | 100 to 1000 nM | 10 to 100 nM | < 5000 nM | 10 to 100 nM | 100 to 1000 nM | 100 to 1000 nM | > 1000 nM | 100 to 1000 nM | 100 to 1000 nM | 
